Where a SMILES comes first, the peptide text is derived from it. Bridges are numbered along the chain shown (N, C = ends). [ ]: non-standard residue; d: D form. The star is where a group is joined. Asp(3S-OH) = N[C@H](C(=O)O)[C@H](O)C(=O)O; Thr(4-Cl) = N[C@H](C(=O)O)[C@H](O)CCl; X1 = CCCCCCCCC[C@@H](O)CC(=O)*; dDab = NCC[C@@H](N)C(=O)O; Dab = NCC[C@H](N)C(=O)O; Dhb = C/C=C(\N)C(=O)O
Key:
[1] = tested on: MDBK cells; experiment: Cytotoxicity of Syr-E to MDBK host cells (LDH assay, visual observation); format: cell-based, bovine; conditions: for Syr-E related cytotoxicity (LDH assay) compared to infected and untreated control: Syr-E 5, 10, 15, 20 μg/ml tested
From the text: Madin-Darby bovine kidney (MDBK) epithelial cells were also used to culture C. parvum in this study. Dulbecco's modified Eagle medium (DMEM) with 10% FBS was used for routine passage of MDBK cells purchased from American Type Collection for Culture (Rockville, Md.). Mycoplasma contamination was periodically checked with Hoechst staining (Uphoff et al., 1992). At confluence, MDBK cells were lifted from culture flasks with trypsin, enumerated, and redistributed to assay plates. Ninety-six well cell culture plates were employed to assess cytotoxicity of testing agents or the parasite or both to host cells using neutral red staining or lactic dehydrogenase (LDH) assay.
A volume of 10 μl/well culture supernatant was pipetted into a 96-well plate and mixed with 50 μl/well substrate solution containing 0.75 mM sodium pyruvate and 1 mg beta-NADH/ml. Following incubation at 37° C. for 30 min, the plate was added with 50 μl of 2,4-dinitrophenylhydrazine/well and kept at 25° C. for 20 min., and then the plate was added with a volume of 200 μl/well of 0.6 N NaOH, mixed well, and retained at 25° C. for 10 min. prior to being quantified by the Microplate Autoreader with a wavelength set at 515 nm.
A single concentration of Syr-E at 15 μg/ml was used to treat MDBK cells at pH 7 with C. parvum infection. Group 1 served as an infection control, receiving no Syr-E treatment. Syr-E was administered 1 day prior to parasite inoculation to groups 2, 4, and 5, at the inoculation day to groups 3-5, and 1 day post inoculation to groups 3 and 5, respectively. Following specified administration day(s), supernatants of corresponding wells containing Syr-E were removed and replaced with fresh DMEM base. Cytotoxicity was monitored using lactic dehydrogenase (LDH) assay on day 1 post inoculation. Three coverslips from each group were collected on days 2 and 5 post inoculation, were fixed, and were stained with the specific IFA, as described with reference to Example II.
Group 1 received neither Syr-E treatment nor inoculation and its cytotoxicity was set at 0%, as illustrated on day 2. Group 2 received only C. parvum inoculation serving as an infection control. Groups 3-6 received both the inoculation and Syr-E treatments at 5, 10, 15, and 20 μg/ml, respectively. Data in FIG. 4 are presented as the means +/- standard errors of the mean. […] Cytotoxicity of Syr-E to host cells was measured using LDH assay on both days 1 and 2 post inoculation. More (P<0.01) cytotoxicity was shown on day 1 post inoculation than day 2 post inoculation. […] Overall, more cytotoxicity was observed as Syr-E concentrations increased.

[2] = tested on: C. parvum; experiment: C. parvum development in BFTE cell culture at pH 6.3; format: cell-based, C. parvum (bovine isolate); conditions: BFTE cells, pH 6.3, day 2 post inoculation
Procedure: C. parvum (bovine isolate) oocysts used in this study were originally donated by the U.S. Department of Agriculture, Ames, Iowa. The oocysts were isolated from calf manure, preserved in 2.5% potassium dichromate at 4° C., and used within 3 months of purification. Oocysts were decontaminated by suspension in 20% (vol/vol) 1.05% sodium hypochlorite on ice for 20 minutes. Oocysts were then washed three times in Hanks' balanced salt solution ("HBSS") and once in RPMI 1640 (available from Sigma, St. Louis, Mo.). Release of sporozoites was achieved by incubating oocysts in an excystation solution consisting of 0.25% (wt/vol) trypsin (available from Sigma, St. Louis, Mo.) and 0.75% (wt/vol) taurodeoxycholic acid (available from Sigma) in HBSS. The resulting suspension was incubated at 37° C. for 45 minutes and microscopically observed to confirm sporozoite release. Sporozoites were completely separated from intact oocysts and oocyst walls by passage through sterile polycarbonate filters (3 micron pore size, available from Millipore Corp., Bedford, Mass.) twice prior to inoculation of bovine fallopian tube epithelial ("BFTE") cell monolayers.
Primary BFTE cell cultures were prepared from bovine fallopian tubes (FT). […]
The inhibitory effect of Syr-E on C. parvum development was monitored in BFTE cell culture at pH 6.3. […]

Structure (SMILES): C/C=C1\NC(=O)[C@H](Cc2ccccc2)NC(=O)[C@H](CCCNC(=N)N)NC(=O)[C@H](CCN)NC(=O)[C@@H](CCN)NC(=O)[C@@H](CO)NC(=O)[C@@H](NC(=O)C[C@H](O)CCCCCCCCC)COC(=O)[C@H]([C@H](O)CCl)NC(=O)[C@H]([C@H](O)C(=O)O)NC1=O [Syr-E, Syringomycin-E] (X1-S[dS][dDab][Dab]RF[Dhb][Asp(3S-OH)][Thr(4-Cl)]; ester 1-C)
- visual cell damage ([1]; Syr-E 15 μg/ml, MDBK cells, pH 7, Table 1 schedule): no visual cell damage observed
- cytotoxicity by LDH assay, treatment schedule groups vs untreated control ([1]; Syr-E 15 μg/ml, MDBK cells, pH 7, day 1 post inoculation, Table 1 schedule): failed to show significant differences between groups except group 3
- visible cell damage on cell monolayers ([1]; Syr-E 5-20 μg/ml, MDBK cells, pH 7.0): No obvious cell peeling or plaques formed on cell monolayers
- Syr-E related cytotoxicity (LDH assay) compared to infected and untreated control ([1]; pH 7.0, day 1 post inoculation): cytotoxicity appeared at 20 μg/ml on day 1 post inoculation
- Syr-E related cytotoxicity (LDH assay) compared to infected and untreated control ([1]; pH 7.0, day 2 post inoculation): 15 and 20 μg/ml on day 2 post inoculation
- infection percentage vs lower Syr-E concentrations (0.5 to 3.0 μg/ml) ([2]; Syr-E 9.0 μg/ml): further reduced the infection percentage significantly (P<0.01)
- infection percentage vs non-treated controls ([2]; Syr-E 0.5, 1.0, 3.0 and 9.0 μg/ml): significantly (at least P<0.01) reduced the infection percentage
